Key:
[1] = molecular target: T1, FLT3 (Homo sapiens, UniProt P36888); assay: RBC HotSpot Kinase Assay, FLT3; assay type: biochemical; design: purchased Reaction Biology (RBC), HotSpot kinase assay; details: isolated kinase, 33P-ATP
T1 sequence (P36888 27-993): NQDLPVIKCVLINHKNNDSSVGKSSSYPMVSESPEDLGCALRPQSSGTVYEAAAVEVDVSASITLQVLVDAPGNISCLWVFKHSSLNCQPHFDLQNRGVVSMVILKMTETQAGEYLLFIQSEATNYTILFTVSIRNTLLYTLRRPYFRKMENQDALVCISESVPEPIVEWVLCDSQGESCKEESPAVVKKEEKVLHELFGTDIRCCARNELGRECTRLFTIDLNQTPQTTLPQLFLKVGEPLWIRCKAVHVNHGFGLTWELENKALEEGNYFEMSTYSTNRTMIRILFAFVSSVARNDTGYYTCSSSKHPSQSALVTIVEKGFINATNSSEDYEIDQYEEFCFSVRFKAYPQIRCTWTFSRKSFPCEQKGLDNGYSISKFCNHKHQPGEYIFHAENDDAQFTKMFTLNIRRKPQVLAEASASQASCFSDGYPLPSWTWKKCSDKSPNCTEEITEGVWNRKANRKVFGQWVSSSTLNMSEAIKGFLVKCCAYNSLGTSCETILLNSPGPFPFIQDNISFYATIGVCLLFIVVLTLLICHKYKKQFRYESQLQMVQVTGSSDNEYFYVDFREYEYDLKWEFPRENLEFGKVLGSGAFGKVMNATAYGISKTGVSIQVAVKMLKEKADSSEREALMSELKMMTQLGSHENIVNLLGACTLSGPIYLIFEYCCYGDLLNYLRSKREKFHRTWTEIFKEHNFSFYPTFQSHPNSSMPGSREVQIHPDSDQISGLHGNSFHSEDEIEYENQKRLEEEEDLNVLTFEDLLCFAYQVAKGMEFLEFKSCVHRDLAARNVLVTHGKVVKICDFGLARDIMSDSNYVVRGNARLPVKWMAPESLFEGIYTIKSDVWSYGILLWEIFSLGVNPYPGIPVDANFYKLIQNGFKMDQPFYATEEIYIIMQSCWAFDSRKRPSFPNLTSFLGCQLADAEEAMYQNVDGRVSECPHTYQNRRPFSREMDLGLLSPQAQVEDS
Summary of the method: (§1)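 Kinase domain constructs, possibly truncated, were assayed radiometrically with 33P-ATP and substrate after 20 min compound preincubation, reacting 2 h at room temp.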

[2] = molecular target: T2, IRAK4 (Homo sapiens, UniProt Q9NWZ3); assay: RBC HotSpot Kinase Assay, IRAK4; assay type: biochemical; design: purchased Reaction Biology (RBC), HotSpot kinase assay; details: isolated kinase, 33P-ATP
T2 sequence (Q9NWZ3 1-460): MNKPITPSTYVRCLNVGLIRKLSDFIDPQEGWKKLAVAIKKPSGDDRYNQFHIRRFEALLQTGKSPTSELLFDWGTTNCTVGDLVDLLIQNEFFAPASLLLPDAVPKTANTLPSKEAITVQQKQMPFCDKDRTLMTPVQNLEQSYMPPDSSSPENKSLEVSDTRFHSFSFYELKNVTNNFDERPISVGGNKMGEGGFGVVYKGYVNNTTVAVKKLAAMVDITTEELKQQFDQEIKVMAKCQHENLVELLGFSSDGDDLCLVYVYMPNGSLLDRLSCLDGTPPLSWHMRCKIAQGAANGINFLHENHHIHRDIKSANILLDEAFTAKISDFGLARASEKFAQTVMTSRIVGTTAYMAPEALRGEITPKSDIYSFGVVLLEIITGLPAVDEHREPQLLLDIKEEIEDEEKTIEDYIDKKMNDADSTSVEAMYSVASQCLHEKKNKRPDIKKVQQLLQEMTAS
Summary of the method: as §1

## CC(O)(c1cn2c(-c3cccc(N[C@H]4CNC[C@@H]4F)n3)cnc2cn1)C(F)(F)F (single isomer, unassigned) [Compound 77]
[1]
  IC50: 0.9 nM
[2]
  IC50: 3 nM

## CC(O)(c1cn2c(-c3cccc(N[C@H]4CNC[C@@H]4F)n3)cnc2cn1)C(F)(F)F (single isomer, unassigned) [Compound 78]
[1]
  IC50: < 0.5 nM
[2]
  IC50: < 0.5 nM

## CC(O)(c1cn2c(-c3cccc(N[C@H]4CNCC[C@@H]4F)n3)cnc2cn1)C(F)(F)F (single isomer, unassigned) [Compound 80]
[1]
  IC50: 0.6 nM
[2]
  IC50: 3 nM

## CC(O)(c1cn2c(-c3cccc(N[C@@H]4CCCNC4)n3)cnc2cn1)C(F)(F)F (single isomer, unassigned) [Compound 81]
[1]
  IC50: < 0.5 nM
[2]
  IC50: < 0.5 nM

## CC(O)(c1cn2c(-c3cccc(N[C@H]4CNCC[C@@H]4F)n3)cnc2cn1)C(F)(F)F (single isomer, unassigned) [Compound 82]
[1]
  IC50: < 0.5 nM
[2]
  IC50: < 0.5 nM

## CC1(c2cn3c(-c4cccc(N[C@H]5CNC[C@@H]5F)n4)cnc3cn2)CC1 [Compound 1, N-((3S,4S)-4-fluoropyrrolidin-3-yl)-6-(6-(1-methylcyclopropyl)imidazo[1,2-a]pyrazin-3-yl)pyridin-2-amine]
[1]
  IC50: 0.6 nM
[2]
  IC50: 0.5 nM

## CC1(c2cn3c(-c4cccc(N[C@@H]5CCNC5)n4)cnc3cn2)CC1 [Compound 3, (R)-6-(6-(1-methylcyclopropyl)imidazo[1,2-a]pyrazin-3-yl)-N-(pyrrolidin-3-yl)pyridin-2-amine]
[1]
  IC50: 0.7 nM
[2]
  IC50: 0.9 nM

## CC1(c2cn3c(-c4cccc(N[C@H]5CNCC56CC6)n4)cnc3cn2)CC1 [Compound 5, (R)-N-(6-(6-(1-methylcyclopropyl)imidazo[1,2-a]pyrazin-3-yl)pyridin-2-yl)-5-azaspiro[2.4]heptan-7-amine]
[1]
  IC50: < 0.5 nM
[2]
  IC50: < 0.5 nM

## FC(F)(F)C1(c2cn3c(-c4cccc(N[C@@H]5CCNC5)n4)cnc3cn2)CC1 [Compound 10, (R)-N-(pyrrolidin-3-yl)-6-(6-(1-(trifluoromethyl)cyclopropyl)imidazo[1,2-a]pyrazin-3-yl)pyridin-2-amine]
[1]
  IC50: < 0.5 nM
[2]
  IC50: 2 nM

## FC(F)c1cn2c(-c3cccc(N[C@H]4CNC[C@@H]4F)n3)cnc2cn1 [Compound 16, 6-(6-(difluoromethyl)imidazo[1,2-a]pyrazin-3-yl)-N-((3S,4S)-4-fluoropyrrolidin-3-yl)pyridin-2-amine]
[1]
  IC50: < 0.5 nM
[2]
  IC50: 1 nM

## FC(F)c1cn2c(-c3cccc(N[C@H]4CNCC[C@@H]4F)n3)cnc2cn1 [Compound 25, 6-(6-(difluoromethyl)imidazo[1,2-a]pyrazin-3-yl)-N-((3S,4S)-4-fluoropiperidin-3-yl)pyridin-2-amine]
[1]
  IC50: < 0.5 nM
[2]
  IC50: 1 nM

## CC(C)(O)c1cn2c(-c3cccc(N[C@@H]4CCCNC4)n3)cnc2cn1 [Compound 30, (R)-2-(3-(6-(piperidin-3-ylamino)pyridin-2-yl)imidazo[1,2-a]pyrazin-6-yl)propan-2-ol]
[1]
  IC50: < 0.5 nM
[2]
  IC50: < 0.5 nM

## CC(C)(O)c1cn2c(-c3cccc(N[C@H]4CNCC[C@@H]4F)n3)cnc2cn1 [Compound 31, 2-(3-(6-(((3S,4S)-4-fluoropiperidin-3-yl)amino)pyridin-2-yl)imidazo[1,2-a]pyrazin-6-yl)propan-2-ol]
[1]
  IC50: < 0.5 nM
[2]
  IC50: < 0.5 nM

## CC(C)(O)c1cn2c(-c3nc(N[C@H]4CNC[C@@H]4F)c(F)cc3F)cnc2cn1 [Compound 33, 2-(3-(3,5-difluoro-6-(((3S,4S)-4-fluoropyrrolidin-3-yl)amino)pyridin-2-yl)imidazo[1,2-a]pyrazin-6-yl)propan-2-ol]
[1]
  IC50: 0.6 nM
[2]
  IC50: < 0.5 nM

## CC(C)(O)c1cn2c(-c3nc(N[C@@H]4CCCNC4)c(F)cc3F)cnc2cn1 [Compound 34, (R)-2-(3-(3,5-difluoro-6-(piperidin-3-ylamino)pyridin-2-yl)imidazo[1,2-a]pyrazin-6-yl)propan-2-ol]
[1]
  IC50: 4 nM
[2]
  IC50: 2 nM

## CC(C)(O)c1cn2c(-c3nc(N[C@H]4CNCC[C@@H]4F)c(F)cc3F)cnc2cn1 [Compound 35, 2-(3-(3,5-difluoro-6-(((3S,4S)-4-fluoropiperidin-3-yl)amino)pyridin-2-yl)imidazo[1,2-a]pyrazin-6-yl)propan-2-ol]
[1]
  IC50: 1 nM
[2]
  IC50: 0.8 nM

## FC(F)(F)COc1cn2c(-c3cccc(N[C@@H]4CCNC4)n3)cnc2cn1 [Compound 38, (R)-N-(pyrrolidin-3-yl)-6-(6-(2,2,2-trifluoroethoxy)imidazo[1,2-a]pyrazin-3-yl)pyridin-2-amine]
[1]
  IC50: < 0.5 nM
[2]
  IC50: 0.8 nM

## Cn1cc(-c2cn3c(-c4cccc(N[C@@H]5CCCNC5)n4)cnc3cn2)cn1 [Compound 43, (R)-6-(6-(1-methyl-1H-pyrazol-4-yl)imidazo[1,2-a]pyrazin-3-yl)-N-(piperidin-3-yl)pyridin-2-amine]
[1]
  IC50: < 0.5 nM
[2]
  IC50: 12 nM

## F[C@H]1CNC[C@@H]1Nc1cccc(-c2cnc3cnc(C4CC4)cn23)n1 [Compound 50, 6-(6-cyclopropylimidazo[1,2-a]pyrazin-3-yl)-N-((3S,4S)-4-fluoropyrrolidin-3-yl)pyridin-2-amine]
[1]
  IC50: 0.6 nM
[2]
  IC50: 0.6 nM

## F[C@H]1CCNC[C@@H]1Nc1cccc(-c2cnc3cnc(C4CC4)cn23)n1 [Compound 51, 6-(6-cyclopropylimidazo[1,2-a]pyrazin-3-yl)-N-((3S,4S)-4-fluoropiperidin-3-yl)pyridin-2-amine]
[1]
  IC50: < 0.5 nM
[2]
  IC50: 1 nM

## Cn1cc(-c2cn3c(-c4cccc(N[C@H]5CNC[C@@H]5F)n4)cnc3cn2)cn1 [Compound 52, N-((3S,4S)-4-fluoropyrrolidin-3-yl)-6-(6-(1-methyl-1H-pyrazol-4-yl)imidazo[1,2-a]pyrazin-3-yl)pyridin-2-amine]
[1]
  IC50: < 0.5 nM
[2]
  IC50: 1 nM

## FC(F)COc1cn2c(-c3cccc(N[C@H]4CNC[C@@H]4F)n3)cnc2cn1 [Compound 58, 6-(6-(2,2-difluoroethoxy)imidazo[1,2-a]pyrazin-3-yl)-N-((3S,4S)-4-fluoropyrrolidin-3-yl)pyridin-2-amine]
[1]
  IC50: 0.7 nM
[2]
  IC50: 1 nM

## O=S1(=O)CCCN1c1cn2c(-c3cccc(N[C@H]4CNCC[C@@H]4F)n3)cnc2cn1 [Compound 97, 2-(3-(6-(((3S,4S)-4-fluoropiperidin-3-yl)amino)pyridin-2-yl)imidazo[1,2-a]pyrazin-6-yl)isothiazolidine 1,1-dioxide]
[1]
  IC50: 0.6 nM
[2]
  IC50: 6 nM

## O=C1CCCN1c1cn2c(-c3nc(N[C@H]4CNCC[C@@H]4F)c(F)cc3F)cnc2cn1 [Compound 107, 1-[3-[3,5-difluoro-6-[[(3S,4S)-4-fluoro-3-piperidyl]amino]-2-pyridyl]imidazo[1,2-a]pyrazin-6-yl]pyrrolidin-2-one]
[1]
  IC50: 1 nM
[2]
  IC50: 38 nM

## O=C1CCCN1c1cn2c(-c3nc(N[C@@H]4CCCNC4)c(F)cc3F)cnc2cn1 [Compound 108, (R)-1-(3-(3,5-difluoro-6-(piperidin-3-ylamino)pyridin-2-yl)imidazo[1,2-a]pyrazin-6-yl)pyrrolidin-2-one]
[1]
  IC50: 0.9 nM
[2]
  IC50: 13 nM

## O=C1NCCN1c1cn2c(-c3cccc(N[C@H]4CNCC[C@@H]4F)n3)cnc2cn1 [Compound 118, 1-(3-(6-(((3S,4S)-4-fluoropiperidin-3-yl)amino)pyridin-2-yl)imidazo[1,2-a]pyrazin-6-yl)imidazolidin-2-one]
[1]
  IC50: 1 nM
[2]
  IC50: 4 nM

## O=C1CCCN1c1cn2c(-c3cccc(N[C@H]4CNCC[C@@H]4F)n3)cnc2cn1 [Compound 119, 1-(3-(6-(((3S,4S)-4-fluoropiperidin-3-yl)amino)pyridin-2-yl)imidazo[1,2-a]pyrazin-6-yl)pyrrolidin-2-one]
[1]
  IC50: < 0.5 nM
[2]
  IC50: 10 nM

From US12612410B2 (CHILDREN'S HOSPITAL MEDICAL CENTER, priority 2020, dated 2026)
